Experimental findings from US20250136594A1 (Tango Therapeutics, Inc., priority 2022, published 2025) are described below.

As usually defined, the IC50 is the concentration that inhibits the measured activity by half. The term IC90 denotes the concentration needed for an effect of 90%.

Test [1] deals with HAP1 MTAP-deleted cell line. Put plainly: Viability assay, HAP1 MTAP-deleted cell line. The format is cell-based. The settings on record: Homo sapiens.
The subject of test [2] is SDMA in HAP1 MTAP-intact cell line (PRMT5 inhibition). Put plainly: SDMA in-cell western assay, HAP1 MTAP-intact cell line. Conditions: Homo sapiens, HAP1, read-out: Hap1 MTAP intact IC50.
Description: (§1) HAP1 MTAP-intact is a cell line in which endogenous levels of MTAP are expressed, and HAP1 MTAP-deleted is an MTAP-null cell line.
Test [3] deals with SDMA in HAP1 MTAP-deleted (MTAP-null) cell line (PRMT5 inhibition). Description: SDMA in-cell western assay, HAP1 MTAP-deleted cell line. Conditions: for IC50 / IC90: Homo sapiens; for IC50: HAP1, read-out: Hap1 MTAP deleted IC50; for IC90: HAP1, read-out: Hap1 MTAP deleted IC90; for Hap1 MTAP intact/deleted ratio: ratio of SDMA IC50 in HAP1 MTAP-intact to HAP1 MTAP-deleted cell line.
Description: as §1

Setting [4] is: viability assay, HAP1 MTAP-deleted cell line, read-out: Hap1 MTAP deleted viability IC50.

SMILES strings stand for the structures. Where two headings read alike, the source gives them in different places.

For `Cc1ccc(CN(Cc2ccccn2)C(=O)C(=O)Nc2cnc(N)c3cn[nH]c23)cc1` [Compound 190, N-(4-amino-1H-pyrazolo[4,3-c]pyridin-7-yl)-N′-(p-tolylmethyl)-N′-(2-pyridylmethyl)oxamide], the IC50 in test [1] (setting [4]) is less than 100 nM; in test [2], 5 to 50 nM; in test [3], less than 5 nM. For the same compound, the IC90 in test [3] was less than 75 nM. Besides, the “Hap1 MTAP intact/deleted ratio” value in test [3] is given as “A (IC50 ratio greater than or equal to 30 fold)”.

For the compound `Cc1cccc(CN(Cc2ccccc2)C(=O)C(=O)Nc2cnc(N)c3cn[nH]c23)n1` [Compound 191, N-(4-amino-1H-pyrazolo[4,3-c]pyridin-7-yl)-N′-benzyl-N′-[(6-methyl-2-pyridyl)methyl]oxamide], the IC50 is less than 100 nM in test [1] (setting [4]), 5 to 50 nM in test [2] and less than 5 nM in test [3]. In addition, the IC90 in test [3] is less than 75 nM. In test [3], the “Hap1 MTAP intact/deleted ratio” value is “A (IC50 ratio greater than or equal to 30 fold)”.

Turning to `CC(c1ccc(C(F)(F)F)cc1)N(C(=O)C(=O)Nc1cnc(N)c2cn[nH]c12)C1CCC1` (stereo not drawn) [Compound 192, N-(4-Amino-1H-pyrazolo[4,3-c]pyridin-7-yl)-N′-cyclobutyl-N′-[1-[4-(trifluoromethyl)phenyl]ethyl]oxamide], the 50% inhibitory concentration (IC50) in test [1] (setting [4]) was less than 100 nM. Besides, the IC50 in test [2] is 5 to 50 nM. In test [3], the IC50 is less than 5 nM, the IC90 is less than 75 nM and the “Hap1 MTAP intact/deleted ratio” value is listed as “B (IC50 ratio greater than or equal to 15 fold but lower than 30 fold)”.

On to `C[C@H](c1ccc(C(F)(F)F)cc1C(F)(F)F)N(C)C(=O)C(=O)Nc1cnc(N)c2cn[nH]c12` [Compound 193, N-(4-Amino-2H-pyrazolo[4,3-c]pyridin-7-yl)-N′-methyl-N′—[(1R)-1-[2,4-bis (trifluoromethyl)phenyl]ethyl]oxamide], for which the IC50 in test [1] (HAP1, read-out: Hap1 MTAP deleted viability IC50) is less than 100 nM; in test [2], more than 50 nM; in test [3], less than 5 nM. Further, in test [3], the IC90 is less than 75 nM.

Regarding `CCN(Cc1ccc(S(F)(F)(F)(F)F)cc1C)C(=O)C(=O)Nc1cnc(N)c2cn[nH]c12` [Compound 194, N-(4-Amino-1H-pyrazolo[4,3-c]pyridin-7-yl)-N′-ethyl-N′-[[2-methyl-4-(pentafluoro-sulfanyl)phenyl]methyl]oxamide], the IC50 in test [1] (setting [4]) is less than 100 nM. Further, the IC50 in test [2] was in the range of 5 to 50 nM. For the same compound, in test [3], the IC50 was less than 5 nM, the IC90 was less than 75 nM and the “Hap1 MTAP intact/deleted ratio” value is listed as “B (IC50 ratio greater than or equal to 15 fold but lower than 30 fold)”.
